Test results reported in PMC5404848 (Cell Chemical Biology, 2017).
Read-outs that look alike come from different tables or passages of the source.

Legend:
[1] = target: T1, human recombinant USP2a catalytic domain (residues 258-605) (Homo sapiens, UniProt O75604); experiment: Di-Ub K63-2 hydrolysis (FRET) assay; conditions: read-out: IC50, USP2a activity, Di-Ub Assay; Di-Ub K63-2, 30 min pre-incubation
T1 sequence (O75604 258-605): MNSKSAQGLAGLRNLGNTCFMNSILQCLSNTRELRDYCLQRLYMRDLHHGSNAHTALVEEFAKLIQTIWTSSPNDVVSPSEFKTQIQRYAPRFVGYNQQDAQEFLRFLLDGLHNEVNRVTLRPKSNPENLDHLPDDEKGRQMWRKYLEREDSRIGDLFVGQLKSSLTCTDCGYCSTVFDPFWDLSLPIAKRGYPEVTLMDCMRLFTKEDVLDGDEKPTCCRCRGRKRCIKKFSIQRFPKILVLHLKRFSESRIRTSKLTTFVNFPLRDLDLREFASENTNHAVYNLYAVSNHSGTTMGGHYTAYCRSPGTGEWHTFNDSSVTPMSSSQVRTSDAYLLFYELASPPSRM
Experimental: (§4) The assays were performed using Infinite 200 PRO – Tecan plate reader and 96-well, black Greiner microplates in a 100 μl reaction volume.
Di-Ub K63-2 hydrolysis assay was performed in 50 mM Tris/HCl pH=7.5, 1mM DTT. USP2a (20 nM) was preincubated with an excess of tested compound for 30 min. Fluorescence changes were recorded at excitation and emission wavelengths of 540 nm and 580 nm respectively, immediately after Di-Ub (200 nM, LifeSensors) addition.
(§5) All assays were performed simultaneously in triplicate and results are presented as mean values ± SD.

[2] = target: T1, human recombinant USP2a catalytic domain (residues 258-605); experiment: Ub-AMC hydrolysis assay; conditions: 30 min pre-incubation; for IC50: read-out: IC50, USP2a activity, Ub-AMC Assay
Experimental: as §4
Ub-AMC-hydrolysis assay was performed in a reaction buffer (50 mM Tris/HCl, pH=7.5, 1 mM EDTA, 1 mM MgCl2).
as §5

[3] = test system: HCT116 p53^wt cells; experiment: Caspase 3/7 activity (Caspase-Glo 3/7); assay type: cell-based, Human; conditions: staurosporine treatment (apoptosis inducer control)
Experimental: To evaluate whether the observed effects are accompanied by the induction of apoptosis, we examined the activation of caspases 3 and 7 in HCT116 p53^wt cells.
The cells were plated on the 96-well white, flat bottom plates (Falcon) and treated with DMSO, LCAHA or Staurosporine. For the detection of caspase activity Caspase-Glo 3/7 Assay System was used (Promega) according to the manufacturer’s instructions.

[4] = test system: HCT116 p53^−/− cells; experiment: MTT assay (cell viability), 6 days treatment; assay type: cell-based, Human
Experimental: (§1) To test the biological activity of the compounds, we performed MTT (3-(4,5-dimethylthiazol-2-yl)-2,5-diphenyltetrazolium bromide) and lactate dehydrogenase (LDH) release assays. […] To track not only the toxic (lethal) but also growth-inhibitory (GI) effect in the MTT assay, we treated the cells for 6 days.
(§2) For MTT assay, the cells were seeded on 96-well transparent plates and treated the next day with the compounds or DMSO for 6 days. Thiazolyl Blue Tetrazolium Bromide (MTT, Sigma Aldrich) was added for 60 minutes to a final concentration of […]. The medium was removed and MTT crystals were dissolved in isopropanol supplemented with 40 mM HCl. The absorbance was measured with Infinite 200 microplate reader (Tecan Group Ltd.) at 570 nm with the reference wavelength 650 nm for background subtraction.

[5] = test system: HCT116 p53^wt cells; experiment: MTT assay (cell viability), 6 days treatment; assay type: cell-based, Human; conditions: for LD50 (concentration killing 50% of cells): Homo sapiens, HCT-116, 144 h, read-out: LD50; for growth-inhibitory (GI) properties: cell-based assay (discussion)
Experimental: as §1, §2

[6] = target: T2, USP7 (Homo sapiens, UniProt Q93009); experiment: Ub-AMC assay, USP7 selectivity; assay type: biochemical; conditions: 10 μM
T2 construct: Human USP7 catalytic domain (residues 208-561) was cloned into the pGEX-6P-1 vector; GST (N, cleaved yes); made in house; host or cells: E. coli BL21 (DE3)
T2 sequence (Q93009 208-561): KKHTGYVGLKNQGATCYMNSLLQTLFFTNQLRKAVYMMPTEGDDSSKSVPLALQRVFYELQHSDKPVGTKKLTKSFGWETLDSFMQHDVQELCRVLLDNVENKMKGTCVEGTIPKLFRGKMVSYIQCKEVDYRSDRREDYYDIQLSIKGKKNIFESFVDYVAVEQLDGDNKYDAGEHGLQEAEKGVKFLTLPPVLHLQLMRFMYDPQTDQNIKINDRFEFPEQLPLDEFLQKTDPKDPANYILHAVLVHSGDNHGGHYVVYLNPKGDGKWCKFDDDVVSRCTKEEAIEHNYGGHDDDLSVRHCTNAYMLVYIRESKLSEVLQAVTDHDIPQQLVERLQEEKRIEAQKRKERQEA
Experimental: Cells were grown in LB medium containing 100 μg/ml ampicillin at 37 °C and induced with 0.5 mM IPTG at OD600 of 0.7-0.9 and cultured overnight at 16 °C. Cells were harvested by centrifugation. Next cells were resuspended in buffer A (50 mM Tris/HCl pH 9.0, 50 mM NaCl, 3 mM β-mercapthoetanol) and disrupted by sonication. Cell lysate were clarified by centrifugation (45 000 g, 40 min.) and dialyzed against buffer A. Supernatant was loaded onto Q-Sepharose column and proteins were eluted with NaCl gradient. Fractions containing GST fused USP7 were combined, concentrated and dialyzed against buffer (50 mM Tris/HCl pH 7.0, 50 mM NaCl, 3 mM β-mercapthoetanol). During dialysis protein was digested with PreScission Protease (GE Healthcare). USP7 protein and cleaved GST were separated on Mono Q HR 10/10 column (GE Healthcare). The last purification step consisted of size exclusion chromatography on HiLoad 16/60 Superdex 75 prep grade (GE Healthcare) in 50 mM Tris/HCl, 150 mM NaCl, 2 mM DTT.

[7] = test system: HCT116 p53^−/− cells; experiment: Western blot analysis of protein expression; assay type: cell-based, Human; conditions: 5 or 20 μM, 48 hr
Source text: (§3) The progression from G1 to S phase relies largely on the expression and activity of D cyclins. To verify whether the observed impairment in cell-cycle progression following LCAHA treatment is associated with D cyclins, we investigated the expression of cyclins D1 and D3 in HCT116 p53^wt and HCT116 p53^−/− cells.

[8] = test system: HCT116 p53^wt cells; experiment: Western blot analysis of protein expression; assay type: cell-based, Human; conditions: 5 or 20 μM, 48 hr
Source text: as §3

[9] = test system: HCT116 p53^wt cells; experiment: Western blot analysis of protein expression; assay type: cell-based, Human; conditions: for expression of p27: 5 or 20 μM, 48 hr, HCT116 cells (Figures 2A and S3A); for expression of proteins encoded by p53-target genes (MDM2 and p21) and of p53: 24 or 48 hr
[10] = Solubility problems in cell line experiment or enzymatic assay; assay type: physicochemical; conditions: in either the cell line experiment or the enzymatic assay
[11] = test system: USP2a; parameters: method as in Nicholson et al., 2008; conditions: ref Nicholson et al., 2008; read-out: EC50 (previously reported); cited from earlier work
[12] = Homo sapiens, HCT-116, 144 h, read-out: LD50

With `C[C@H](CCC(=O)O)[C@H]1CC[C@H]2[C@@H]3[C@H](O)C[C@@H]4C[C@H](O)CC[C@]4(C)[C@H]3C[C@H](O)[C@]12C` [CGG, cholic acid, reference compound] as the compound, how does the IC50 [1] read?
Its IC50 is > 100 µM.

And the “IC50, USP2a activity, Ub-AMC Assay” value [2]?
The value was “not active”.

With `CN[C@@H]1C[C@H]2O[C@@](C)([C@@H]1OC)n1c3ccccc3c3c4c(c5c6ccccc6n2c5c31)C(=O)NC4` [staurosporine, reference compound] as the compound, how does the “activity of caspases 3 and 7” value [3] read?
Its value is “strong increase”.

Which results are given for `C[C@H](CCC(=O)N1CCOCC1)[C@H]1CC[C@H]2[C@@H]3CC[C@@H]4C[C@H](O)CC[C@]4(C)[C@H]3CC[C@]12C` [LCAMR, N-lithocholanolyl Morpholine]?
IC50 [1]: > 100 µM; IC50 [2]: > 100 µM; LD50 [4, 12]: 7.9 ± 0.7 µM; LD50 (concentration killing 50% of cells) [5]: 8.2 ± 0.7 µM

Which IC50 [1] does the source give for `C[C@H](CCC(=O)NCC(=O)O)[C@H]1CC[C@H]2[C@@H]3CC[C@@H]4C[C@H](O)CC[C@]4(C)[C@H]3CC[C@]12C` [LCAGLY, N-(3-hydroxylithocholanolyl)glycine] here?
The IC50 was > 50 µM.

What about the IC50 [2] of the same compound?
The IC50 was > 50 µM.

With `C[C@H](CCC(=O)O)[C@H]1CC[C@H]2[C@@H]3CC[C@@H]4C[C@H](O)CC[C@]4(C)[C@H]3CC[C@]12C` [LCA, Lithocholic acid, reference compound] as the compound, how does the “inhibition of USP7 protein activity” value [6] read?
Its value is “no inhibition”.

What about the “cyclin D1 expression” value [7] of the same compound?
The value was “did not affect”.

And the “cyclin D3 expression” value [7]?
The value was “significantly increased”.

What about the “cyclin D1 expression” value [8] of the same compound?
The value was “did not affect”.

What about the “cyclin D3 expression” value [8] of the same compound?
Its value is “significantly increased”.

What about the IC50 [1] of the same compound?
Its IC50 is 32 ± 3.2 µM.

What about the IC50 [2] of the same compound?
The IC50 was 31.1 ± 3.4 µM.

What about the “expression of p27” value [9] of the same compound?
The value was “not altered”.

What about the “expression of proteins encoded by p53-target genes (MDM2 and p21) and of p53” value [9] of the same compound?
The value was “did not induce”.

And the “growth-inhibitory (GI) properties” value [5]?
Its value is “inactive in the inhibition of cell growth”.

With `C[C@H](CCC(=O)NCC#N)[C@H]1CC[C@H]2[C@@H]3CC[C@@H]4C[C@H](O)CC[C@]4(C)[C@H]3CC[C@]12C` [LCACN, N-(cyanomethyl)-3-hydroxylithocholanamide] as the compound, how does the IC50 [1] read?
The IC50 was 13.9 ± 2.3 µM.

What about the IC50 [2] of the same compound?
The IC50 was 7.4 ± 1.2 µM.

What about the LD50 [4, 12] of the same compound?
The LD50 was 29.9 ± 3.2 µM.

And the LD50 (concentration killing 50% of cells) [5]?
Its LD50 (concentration killing 50% of cells) is 28 ± 0.7 µM.

And the solubility [10]?
The solubility was “solubility problems”.

Which results are given for `C[C@H](CCC(=O)O)[C@H]1CC[C@H]2[C@@H]3[C@@H](O)C[C@@H]4C[C@H](O)CC[C@]4(C)[C@H]3CC[C@]12C` [UDCA, ursodeoxycholic acid, reference compound]?
IC50 [1]: > 100 µM; IC50, USP2a activity, Ub-AMC Assay [2]: not active

What does the source list for `Cc1ccc(/C=C2\CNC/C(=C\c3ccc(C)cc3)C2=O)cc1` [NSC 632839, reference compound]?
IC50 [1]: > 50 µM; EC50 [11]: 45 ± 4 µM; IC50 [2]: 39.1 ± 6.4 µM

What does the source list for `CC(=O)O[C@@H]1CC[C@@]2(C)[C@H](CC[C@@H]3[C@@H]2CC[C@]2(C)[C@@H]([C@H](C)CCC(=O)O)CC[C@@H]32)C1` [LCAE, 3-Acetoxy-Lithocholic Acid]?
cyclin D3 expression [7]: no effect; cyclin D1 expression [8]: decreased the expression of the protein; cyclin D3 expression [8]: no effect; expression of p27 [9]: not altered; expression of proteins encoded by p53-target genes (MDM2 and p21) and of p53 [9]: did not induce; growth-inhibitory (GI) properties [5]: no GI properties

Which “IC50, USP2a activity, Ub-AMC Assay” value [2] does the source give for `C[C@H](CCC(=O)NCCS(=O)(=O)O)[C@H]1CC[C@H]2[C@@H]3[C@H](O)C[C@@H]4C[C@H](O)CC[C@]4(C)[C@H]3C[C@H](O)[C@]12C` [TCAS, taurocholic acid, reference compound] here?
The value was “not active”.

Which results are given for `C[C@H](CCC(=O)O)[C@H]1CC[C@H]2[C@@H]3CC[C@@H]4CC(=O)CC[C@]4(C)[C@H]3CC[C@]12C` [LCAK, 3-Oxo-Lithocholic Acid]?
IC50 [1]: 33.1 ± 3.2 µM; IC50 [2]: 32 ± 1.8 µM

With `COC(=O)CC[C@@H](C)[C@H]1CC[C@H]2[C@@H]3CC[C@@H]4C[C@H](O)CC[C@]4(C)[C@H]3CC[C@]12C` [LCAME, Methyl 3-Hydroxylithocholanoate] as the compound, how does the IC50 [1] read?
The IC50 was > 50 µM.

What about the IC50 [2] of the same compound?
The IC50 was > 50 µM.

And the LD50 ([4]; HCT116 p53^−/−, MTT assay, 6 days)?
The LD50 was 35.1 ± 4.8 µM.

What about the LD50 ([5]; HCT116^wt, MTT assay, 6 days) of the same compound?
The LD50 was 20.5 ± 1.1 µM.

Which IC50 [1] does the source give for `C[C@H](CCC(N)=O)[C@H]1CC[C@H]2[C@@H]3CC[C@@H]4C[C@H](O)CC[C@]4(C)[C@H]3CC[C@]12C` [LCANH2, 3-hydroxylithocholanamide] here?
Its IC50 is 16.7 ± 1.3 µM.

And the IC50 [2]?
Its IC50 is 27.9 ± 1 µM.

And the LD50 [4, 12]?
Its LD50 is 41.8 ± 2.7 µM.

What about the LD50 (concentration killing 50% of cells) [5] of the same compound?
The LD50 (concentration killing 50% of cells) was 24.5 ± 0.9 µM.
